Experimental data published in article PMC12154443, “Design, Synthesis, Anti-Tumor Activity and Molecular Docking Studies of Novel Triphenylphosphine-Containing Formononetin Derivatives” (International Journal of Molecular Sciences, 2025).
Like-named read-outs stand apart in the source and are kept apart here.

Assays:
[1] = test system: human breast cancer cells (MCF-7); assay: MTT cell viability assay, MCF-7; type: cell-based
Description: (§1) The human embryonic kidney cells (HEK-293), human non-small-cell lung cancer (A549), human breast cancer cells (MCF-7), and human prostate cancer (PC-3M) cells used in this study were obtained from the Beijing BNCC Biotechnology Research Institute (Beijing, China), and human gastric cancer cells (HGC-27) were obtained from Dalian Meilun Biotechnology Co., Ltd. (Dalian, China).
(§2) The cell lines used in this study (A549, MCF-7, PC-3M, HGC-27, HEK-293) were removed from the CO2 incubator and seeded into 96-well plates at a density of 5 × 10^4/mL. Following a 24-h incubation period under standard CO2 conditions, we added […] of sample solutions at various concentrations ([…], 12.5, 25, 50, 100 μmol/L) to each well. Each concentration was tested in six replicates. The control group received 0.1% DMSO in serum-free medium (SFM). After 48 h of the drug effect, 10 µL of MTT solution was added to each well under light-avoidance conditions, and incubation was continued under light-avoidance conditions for 4 h; the supernatant was discarded, and 150 μL of DMSO was added to dissolve the resulting formazan crystals. After 10 min of shaking to ensure the complete dissolution and uniform color development of purple crystals, the absorbance (OD) was measured at 490 nm using a microplate reader.
(§3) The inhibition rate was calculated as: Inhibition rate (%) = [(OD value of control group-OD value of administered group)/(OD value of control group-OD value of zeroing group)] × 100%, where OD value of zeroing group represents the zeroing group.
(§4) The IC50 values of the drugs were calculated by fitting using GraphPad Prism v.6.01 (GraphPad Software, San Diego, CA, USA), and it was used as a criterion for selecting the appropriate drug concentration for subsequent experiments.

[2] = test system: human non-small-cell lung cancer (A549); assay: MTT cell viability assay, A549; type: cell-based; settings: A549 cells; for IC50: Homo sapiens, MTT, 48 h, read-out: half inhibitory concentration (IC50), A549; for increase in cytostatic effect relative to formononetin: from IC50 values
Description: The human embryonic kidney cells (HEK-293), human non-small-cell lung cancer (A549), human breast cancer cells (MCF-7), and human prostate cancer (PC-3M) cells used in this study were obtained from the Beijing BNCC Biotechnology Research Institute (Beijing, China), and human gastric cancer cells (HGC-27) were obtained from Dalian Meilun Biotechnology Co., Ltd. (Dalian, China). […] Each concentration was tested in six replicates. The control group received 0.1% DMSO in serum-free medium (SFM). […] The inhibition rate was calculated as: Inhibition rate (%) = [(OD value of control group-OD value of administered group)/(OD value of control group-OD value of zeroing group)] × 100%, where OD value of zeroing group represents the zeroing group.

[3] = test system: human prostate cancer (PC-3M) cells; assay: MTT cell viability assay, PC-3M; type: cell-based; settings: 48 h, read-out: half inhibitory concentration (IC50), PC-3M
Description: as §1, §2, §3, §4

[4] = test system: human embryonic kidney cells (HEK-293); assay: MTT cell viability assay, normal HEK-293 cells; type: cell-based; settings: HEK293, 48 h, read-out: half inhibitory concentration (IC50), HEK-293
Description: as §1, §2, §3, §4

[5] = test system: human gastric cancer cells (HGC-27); assay: MTT cell viability assay, HGC-27; type: cell-based; settings: 48 h, HGC-27 cells, read-out: half inhibitory concentration (IC50), HGC-27
Description: as §1, §2, §3, §4

[6] = Solubility observed during the experimental process; type: physicochemical; settings: room temperature, formononetin in water, methanol, ethanol, acetone, tetrahydrofuran, ethyl acetate, dichloromethane, chloroform, derivatives in acetate
Description: Therefore, using procedures reported in the previous studies, we employed a molar ratio of 1:3 between the intermediate and triphenylphosphine. […] For the synthesis of fatty acid esters, dichloromethane was employed as the reaction solvent, and a 1.5-fold molar excess of the corresponding acid was added. The reaction was conducted over a 1–4 h period, which enabled the complete conversion of formononetin and maximum yield. […] The introduction of triphenylphosphine […].

[7] = MCF7, 48 h, MCF-7 cells, read-out: half inhibitory concentration (IC50), MCF-7
[8] = MCF7, MCF-7 cells, read-out: IC50 against MCF-7 cells

Row | Compound | IC50 [1, 7] | IC50 [2] | IC50 [3] | IC50 [5] | IC50 [1, 8] | solubility (observation) [6] | IC50 [4] | increase in cytostatic effect relative to formononetin [2]
1 | COc1ccc(-c2coc3cc(OC(=O)CCCCCCCCCBr)ccc3c2=O)cc1 [1e, 7-O-(10-bromodecanoyl)-formononetin] | – | 65.4 ± 5.01 µM | 84 ± 11 µM | 66.1 ± 7.33 µM | – | – | 95.1 ± 7.97 µM | –
2 | COc1ccc(-c2coc3cc(OC(=O)CCCCCCCCCCC[P+](c4ccccc4)(c4ccccc4)c4ccccc4)ccc3c2=O)cc1 [2g, 7-O-(12-bromododecanoyl)-formononetin-triphenylphosphine coupling] | 46.6 ± 4.95 µM | 23.6 ± 2.25 µM | 41.2 ± 4.4 µM | 29.4 ± 2.52 µM | – | – | 59.6 ± 5.65 µM | ~7 fold
3 | COc1ccc(-c2coc3cc(OC(=O)CCCCCCBr)ccc3c2=O)cc1 [1b, 7-O-(7-bromoheptanoyl)-formononetin] | – | – | – | 79.1 ± 5.65 µM | – | – | 70.7 ± 5.61 µM | –
4 | COc1ccc(-c2coc3cc(OC(=O)CCCCCCC[P+](c4ccccc4)(c4ccccc4)c4ccccc4)ccc3c2=O)cc1 [2c, 7-O-(8-bromooctanoyl)-formononetin-triphenylphosphine coupling] | 42.6 ± 9.44 µM | 12.2 ± 1.52 µM | 21.7 ± 1.25 µM | 18.6 ± 1.6 µM | – | – | 77 ± 8.26 µM | ~7 fold
5 | COc1ccc(-c2coc3cc(OC(=O)CCCCCCCCCCCBr)ccc3c2=O)cc1 [1g, 7-O-(12-bromododecanoyl)-formononetin] | – | 53.6 ± 5.15 µM | > 100 µM | 95.5 ± 6.23 µM | – | – | 59.9 ± 7.79 µM | –
6 | COc1ccc(-c2coc3cc(OC(=O)CCCCCCCBr)ccc3c2=O)cc1 [1c, 7-O-(8-bromooctanoyl)-formononetin] | – | > 100 µM | – | 31.4 ± 4.93 µM | – | – | 68 ± 5.33 µM | –
7 | COc1ccc(-c2coc3cc(OC(=O)CCCCCCCCCC[P+](c4ccccc4)(c4ccccc4)c4ccccc4)ccc3c2=O)cc1 [2f, 7-O-(11-bromoundecanoyl)-formononetin-triphenylphosphine coupling] | 52.3 ± 6.85 µM | 20.6 ± 1.21 µM | 27.9 ± 2.69 µM | 30.4 ± 2.12 µM | – | – | 51.7 ± 5.48 µM | ~7 fold
8 | COc1ccc(-c2coc3cc(OC(=O)CCCCCCCC[P+](c4ccccc4)(c4ccccc4)c4ccccc4)ccc3c2=O)cc1 [2d, 7-O-(9-bromononanoyl)-formononetin-triphenylphosphine coupling] | 56.8 ± 4.04 µM | 31.2 ± 4.4 µM | 67 ± 6.97 µM | 29.1 ± 2.58 µM | – | – | 47 ± 8.41 µM | –
9 | COc1ccc(-c2coc3cc(OC(=O)CCCCCCCCBr)ccc3c2=O)cc1 [1d, 7-O-(9-bromononanoi)-formononetin] | – | 86.2 ± 6.1 µM | – | 79.2 ± 9.27 µM | – | – | 74.4 ± 4.28 µM | –
10 | COc1ccc(-c2coc3cc(OC(=O)CCCCCCCCC[P+](c4ccccc4)(c4ccccc4)c4ccccc4)ccc3c2=O)cc1 [2e, 7-O-(10-bromodecanoyl)-formononetin-triphenylphosphine coupling] | 85.5 ± 4.99 µM | 39 ± 1.65 µM | 97.9 ± 6.33 µM | 39.2 ± 2.68 µM | – | – | 64 ± 3.47 µM | –
11 | COc1ccc(-c2coc3cc(OC(=O)CCCCCC[P+](c4ccccc4)(c4ccccc4)c4ccccc4)ccc3c2=O)cc1 [2b, 7-O-(7-bromoheptanoyl)-formononetin-triphenylphosphine coupling] | 46.5 ± 4.94 µM | 42.2 ± 3.69 µM | 69.2 ± 3.98 µM | 32.1 ± 5.96 µM | – | – | 46.2 ± 3.99 µM | –
12 | COc1ccc(-c2coc3cc(OC(=O)CCCCC[P+](c4ccccc4)(c4ccccc4)c4ccccc4)ccc3c2=O)cc1 [2a, 7-O-(6-bromohexanoyl)-formononetin-triphenylphosphine coupling] | 72.8 ± 6.25 µM | 28.8 ± 2.45 µM | 55.2 ± 4.4 µM | 13.4 ± 2.77 µM | – | – | 44.8 ± 2.39 µM | –
13 | COc1ccc(-c2coc3cc(OC(=O)CCCCCCCCCCBr)ccc3c2=O)cc1 [1f, 7-O-(11-bromoundecanoyl)-formononetin] | – | 74.6 ± 11.4 µM | – | 55.6 ± 2.43 µM | – | – | 95.7 ± 8.09 µM | –
14 | COc1ccc(-c2coc3cc(OC(=O)CCCCCBr)ccc3c2=O)cc1 [1a, 7-O-(6-bromohexanoyl)-formononetin] | – | – | – | 83.3 ± 8.32 µM | – | – | 83.4 ± 8.61 µM | –
15 | COc1ccc(-c2coc3cc(O)ccc3c2=O)cc1 [FMN, formononetin] | – | 83 ± 6.25 µM | 76.4 ± 6.47 µM | 29.6 ± 1.17 µM | > 100 µM | almost no solubility | 39.6 ± 3.26 µM | –
16 | COc1cccc2c1C(=O)c1c(O)c3c(c(O)c1C2=O)C[C@@](O)(C(=O)CO)C[C@@H]3O[C@H]1C[C@H](N)[C@H](O)[C@H](C)O1 [DOX, doxorubicin, reference compound] | 13.2 ± 0.43 µM | 15.4 ± 1.06 µM | 0.168 ± 0.06 µM | 5.97 ± 0.43 µM | – | – | – | –
17 | O=c1[nH]cc(F)c(=O)[nH]1 [5-FU, 5-fluorouracil, reference compound] | – | 22.9 ± 3.54 µM | 48.1 ± 3.76 µM | 36.2 ± 3.02 µM | > 100 µM | – | > 100 µM | –

More lines, main results first:

Row | IC50 [1, 7] | IC50 [2] | IC50 [3] | IC50 [5] | IC50 [1, 8] | solubility (observation) [6] | Compound | IC50 [4] | increase in cytostatic effect relative to formononetin [2]
18 | 67.8 ± 8.92 µM | 66.9 ± 9.7 µM | 50.4 ± 5.78 µM | – | – | – | CCCCCCCCCCCC(=O)Oc1ccc2c(=O)c(-c3ccc(OC)cc3)coc2c1 [3g, 7-O-dodecanoyl-formononetin] | 50.4 ± 6.13 µM | –
19 | 85 ± 5.74 µM | 70.1 ± 9.67 µM | 46.7 ± 9.24 µM | 45.4 ± 5.24 µM | – | – | CCCCCCCCCCC(=O)Oc1ccc2c(=O)c(-c3ccc(OC)cc3)coc2c1 [3f, 7-O-undecanoyl-formononetin] | 75 ± 5.49 µM | –
20 | – | – | 62 ± 8.71 µM | 49.5 ± 3.35 µM | – | – | CCCCCC(=O)Oc1ccc2c(=O)c(-c3ccc(OC)cc3)coc2c1 [3a, 7-O-hexanoyl-formononetin] | – | –
21 | – | 83 ± 5.89 µM | – | 60 ± 7.82 µM | – | – | CCCCCCCC(=O)Oc1ccc2c(=O)c(-c3ccc(OC)cc3)coc2c1 [3c, 7-O-octanoyl-formononetin] | – | –
22 | – | 96.4 ± 7.37 µM | – | 65.4 ± 3.88 µM | – | – | CCCCCCC(=O)Oc1ccc2c(=O)c(-c3ccc(OC)cc3)coc2c1 [3b] | – | –
23 | – | 78.1 ± 6.21 µM | 58.3 ± 5.36 µM | 80.2 ± 4.8 µM | – | – | CCCCCCCCC(=O)Oc1ccc2c(=O)c(-c3ccc(OC)cc3)coc2c1 [3d, 7-O-nonanoyl-formononetin] | 78.3 ± 9.74 µM | –
24 | – | 74 ± 11.9 µM | – | 48.6 ± 5.3 µM | – | – | CCCCCCCCCC(=O)Oc1ccc2c(=O)c(-c3ccc(OC)cc3)coc2c1 [3e, 7-O-n-decanoyl-formononetin] | – | –
